Counter-ions that a name gives are not always drawn.

From US20240158693A1, “Probe for Hydrogen Sulfide Detection, Method for Manufacturing Same, and Composition for Hydrogen Sulfide Detection, Comprising Same” (Korea Institute of Ocean Science &Technology, priority 2020, published 2024) come the findings set out here.

Data set [1] is described as follows: Sensing behavior of KF-DNBS with HSA as selective H2S probe (H2S titration, LOD). On the procedure:
The experiment was carried out in triplicate. The limit of detection (LOD) was calculated using 3σ/slope based on the titration experiment, in which σ was the standard deviation of the blank measurements and the slope value was obtained from a plot of the fluorescence intensity versus H2S concentration.

Data set [2] is described as follows: Optimization of sensing conditions for H2S detection (biothiols with and without 2-FBBA). As for the experimental part:
The samples containing HSA (100 μM) and each biothiol (H2S 100 μM, Cys 250 μM, Hcy 100 μM, and GSH 10 μM) with and without 2-formyl benzene boronic acid (2-FBBA) in SPB (pH 7.4, 20 mM) were incubated for 15 minutes at 25° C. KF-DNBS (25 μM, 10% DMSO) was added to the samples followed by the measurement of fluorescence spectra under excitation at 420 nm at 37° C.

Data set [3] can be described thus: Selectivity of KF-DNBS toward H2S over other biological analytes. As for the experimental part:
Next, the selectivity of KF-DNBS with HSA toward H2S was investigated using various biologically relevant species, including biothiols (Cys, Hcy, and GSH), reactive sulfur species (RSS), and reactive oxygen species (ROS) (HSO4^−, SO4^2−, SO3^2−, S2O3^2−, SCN^−, H2O2, and ClO^−), and anions (CN^−, F^−, Br^−, NO3^−, NO2^−, HCO3^−, and CH3CO2^−).
A blank containing no analyte and a sample containing each analyte (H2S 100 μM, Cys 250 μM, Hcy 100 μM, GSH 10 μM, HSO4^− 100 μM, SO4^2− 100 μM, SO3^2− 100 μM, S2O3^2− 100 μM, SCN^− 100 μM, CN^− 100 μM, F^− 100 μM, Br^− 100 μM, NO3^− 100 μM, NO2^− 100 μM, HCO3^− 100 μM, CH3CO2^− 100 μM, H2O2 100 μM, ClO^− 100 μM) were prepared followed by the addition of HSA (100 μM) and 2-FBBA (2 mM) to SPB (pH 7.4, 20 mM). After incubation for 15 minutes at 25° C., KF-DNBS (25 μM, 10% DMSO) was added to each sample, and then fluorescence intensity at 500 nm was recorded using the fluorescence spectrophotometer under excitation at 420 nm at 37° C. The experiment was conducted in triplicate.

The target of data set [4] is HSA (Homo sapiens, UniProt P02768). The experiment in a line: Comparison of fluorescence change of KF and KF-DNBS with HSA. To be noted: SPB pH 7.4, excitation 420 nm. On the procedure: Stock solutions of KF and KF-DNBS were prepared in DMSO, and a stock solution of HSA was prepared in distilled water. Blanks, each containing only KF or KF-DNBS (25 μM, 10% DMSO), and samples, each containing KF or KF-DNBS (25 μM, 10% DMSO) with HSA (100 μM) in sodium phosphate buffer (SPB, pH 7.4, 20 mM), were prepared. Fluorescence spectra were then recorded using the fluorescence spectrophotometer under excitation at 420 nm.
Sequence of HSA (P02768 25-609): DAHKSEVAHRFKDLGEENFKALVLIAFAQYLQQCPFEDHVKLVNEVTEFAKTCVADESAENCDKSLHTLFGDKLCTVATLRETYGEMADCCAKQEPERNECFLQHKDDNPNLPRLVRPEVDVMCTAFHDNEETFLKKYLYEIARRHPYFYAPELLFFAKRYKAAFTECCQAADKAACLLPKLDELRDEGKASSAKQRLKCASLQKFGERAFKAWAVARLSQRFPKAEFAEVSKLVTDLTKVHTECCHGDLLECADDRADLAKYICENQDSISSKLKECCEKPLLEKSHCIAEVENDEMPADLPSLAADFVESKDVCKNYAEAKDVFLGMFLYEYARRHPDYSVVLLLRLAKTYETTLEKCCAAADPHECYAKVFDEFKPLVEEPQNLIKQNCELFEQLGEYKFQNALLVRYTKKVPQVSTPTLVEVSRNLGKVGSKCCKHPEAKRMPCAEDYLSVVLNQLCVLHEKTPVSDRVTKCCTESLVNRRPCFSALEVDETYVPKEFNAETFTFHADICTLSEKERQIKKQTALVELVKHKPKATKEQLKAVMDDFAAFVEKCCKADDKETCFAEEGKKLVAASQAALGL

Setting [5] is: KF-DNBS 25 μM with HSA 100 μM, 2-FBBA 2 mM, SPB pH 7.4.

`CCN(CC)c1ccc(-c2cc3c(s2)c(-c2ccc(OS(=O)(=O)c4ccc([N+](=O)[O-])cc4[N+](=O)[O-])cc2)cc(=O)n3C)cc1` [KF-DNBS, 4-(2-(4-(diethylamino)phenyl)-4-methyl-5-oxo-4,5-dihydrothieno[3,2-b]pyridin-7-yl)phenyl 2,4-dinitrobenzenesulfonate]: in data set [1] (setting [5]), the “H2S concentration range of linear fluorescence increase” value lay in the range of 5 to 100 µM and the “detection limit (3σ/slope) for H2S” value is 3.2 µM. Besides, the “time for fluorescence intensity at 500 nm to reach the maximum value” in data set [1] (KF-DNBS 25 μM, HSA 100 μM, 2-FBBA 2 mM, SPB pH 7.4, H2S added, 37° C.) was at most 20 min. The “H2S response in various buffer conditions” value in data set [1] (KF-DNBS with HSA, H2S 100 μM, pH 5 to pH 9, 20 mM) is “worked well”. The “fluorescence change induced by Cys and Hcy” value in data set [2] (KF-DNBS 25 μM with HSA 100 μM, Cys 250 μM, Hcy 100 μM, without 2-FBBA) is listed as “noticeable fluorescence change”. Further, the “fluorescence intensity at 500 nm on addition of H2S” value in data set [2] (KF-DNBS 25 μM with HSA 100 μM, H2S 100 μM, SPB pH 7.4, without 2-FBBA) is on record as “increased significantly”. Moreover, in data set [2] (KF-DNBS with HSA in the presence of 2-FBBA (2 mM)), the “selectivity to H2S over other biothiols” value is “superior selectivity”. Further, the “fluorescence enhancement at 500 nm with various analytes” value in data set [3] (KF-DNBS 25 μM, HSA 100 μM, 2-FBBA 2 mM, SPB pH 7.4, 18 analytes) is on record as “remarkable fluorescence enhancement was observed only for H2S”. In addition, the “selectivity toward H2S” value in data set [3] (KF-DNBS with HSA and masking reagent 2-FBBA, biothiols, RSS, ROS, anions) was “high selectivity”. Besides, the “fluorescence in the presence or absence of HSA” value in data set [4] (25 μM, 10% DMSO, HSA 100 μM) is recorded as “weak fluorescence”.

In the case of `CCN(CC)c1ccc(-c2cc3c(s2)c(-c2ccc(O)cc2)cc(=O)n3C)cc1` [KF, 2-(4-(diethylamino)phenyl)-7-(4-hydroxyphenyl)-4-methylthieno[3,2-b]pyridin-5(4H)-one], the melting point (usually the temperature of the solid-liquid transition) was 250 to 251 °C. Moreover, the “fluorescence shift by addition of HSA” value in data set [4] (25 μM, 10% DMSO, HSA 100 μM) is reported as “shifted slightly from 550 to 500”. The “HSA concentration range of linear fluorescence increase” value in data set [4] was 5 to 50 µM.

The molecule `CCN(CC)c1ccc(-c2cc3c(s2)c(-c2ccc(OS(=O)(=O)c4ccc([N+](=O)[O-])cc4[N+](=O)[O-])cc2)cc(=O)n3C)cc1` (as salt: benzenesulfonate) [KF-DNBS, 4-(2-(4-(diethylamino)phenyl)-4-methyl-5-oxo-4,5-dihydrothieno[3,2-b]pyridin-7-yl)phenyl 2,4-dinitrobenzenesulfonate] showed a melting point of 96 to 98 °C.

On to “2-formyl benzene boronic acid [2-FBBA, reference compound]”, for which, in data set [2] (2-FBBA 2 mM, Cys 250 μM, Hcy 100 μM, HSA 100 μM), the “masking of the reactivity of Cys and Hcy upon KF-DNBS” value is reported as “completely block”.
